Assay results from patent publication US8883010B2, “Polymer composition with phytochemical and dialysis membrane formed from the polymer composition” (The University of Akron, priority 2008, dated 2014).
Entries after “also recorded” stand apart in the source; their conditions may differ.

Key:
[1] = test system: peripheral blood mononuclear cells (PBMC); experiment: Cell viability (cytotoxicity) assay with 7-AAD dye and flow cytometry; type: cell-based; details: pure genistein, 25-500 μg/ml
Procedure: Cell viability assays were conducted to determine the effect of unmodified membranes, pure genistein and genistein modified membranes on whole blood. A nucleic acid dye, 7-Amino-actinomycin D (7-AAD), (BD-Via-Probe™ from BD Bioscience, CA) was used as a viability probe, which is based on uptake of 7-AAD. 7-AAD is a nucleic acid dye, which is designed in such a way that it cannot enter live cells. Fresh blood mixed with the dye was used as a negative control, whereas blood incubated with the membrane and/or genistein served as the experimental samples.
To perform the assays, 100 μl of fresh blood was pipetted into separate polypropylene tubes and mixed with 2 ml of ammonium chloride lysis buffer solution (containing 8.26 g ammonium chloride, 1 g potassium bicarbonate, and 0.037 g ethylenediamine-tetraacetic acid dissolved in 1 liter deionized water). The tubes were allowed to stand at room temperature for 10 min during which most of the red blood cells were lysed. The tubes were centrifuged at room temperature for 5 min at 1,800 rpm. […] The cells were resuspended with 500 μl of PBS and the cell suspension was analyzed using a flow cytometer (EPICS® XL-MCL™, Beckman Coulter, Calif., USA) equipped with System II™ software. […] The fluorescence signal from the dead cells was measured on the FL3 red channel (650 nm) with the flow cytometer.

[2] = test system: reactive oxygen species (ROS) in neutrophils; experiment: Modified DHR (dihydrorhodamine) assay of oxygen radical generation in PMA-stimulated whole blood; type: cell-based, human; details: for suppression of ROS levels (in words): pure antioxidant in DMSO, no membrane/polymer, 25-500 μg/ml
Procedure: In order to determine the effect of membranes and/or genistein on oxygen radical generation, the standard dihydrorhodamine (DHR) assay was modified as follows. The assay consisted of one positive control tube, several sample tubes and one negative control tube. The positive control tube contained 100 μl blood, 25 μl DHR, and 25 μl PMA; the total contents were made up to a total volume of 1 ml with PBS. The effect of oxygen radical generation is tested as follows, using the sample tube containing 100 μl blood, 25 μl DHR, 25 μl PMA and the appropriate sample (for example, unmodified membranes or pure genistein or genistein modified membranes). […] For the assay, two small circular samples (2×0.4 cm^2) were punched out from the cast films and placed inside the test tubes. After adding the membrane, the entire contents were incubated at 37° C. for 3 h (to simulate hemodialysis conditions) while being subjected to continuous shaking. After 3 h of incubation, the membrane samples were removed from the blood and agitated with 1 ml of PBS in order to dislodge the cells that were attached to the membrane. In the case of pure genistein (i.e., no membrane), the samples were prepared by dissolving genistein in DMSO over a wide range of concentration (25-500 μg/ml). The negative control tube contained 100 μl blood, 25 μl DHR, and the sample.
In order to normalize the data obtained from different set of experiments, the following formula was employed to express ROS level in percentage,
where the positive control represent 100% ROS and the negative control represent 0% ROS. The x, y, and z parameters represent the mean fluorescence signal obtained from the positive control, the negative control, and the samples, respectively.

Row | Compound | cytotoxicity to PBMC [1] | suppression of ROS levels (in words) [2] | reduction of the oxygen radicals ([2]; pure genistein in DMSO, no membrane)
1 | O=c1c(-c2ccc(O)cc2)coc2cc(O)cc(O)c12 [genistein, 5,7-dihydroxy-3-(4-hydroxyphenyl)chromen-4-one] | non-cytotoxic | dose-dependent reduction of ROS level; also recorded: suppress ROS levels significantly; also recorded: Suppression is greater than for Vitamin E | about 50%
2 | Vitamin E | – | Suppression is greater than for Vitamin E | –
